The values below come from ChEMBL document CHEMBL2401721, “BACE1 inhibitors: a head group scan on a series of amides” (Bioorg Med Chem Lett, 2013).

The nature of data set [1]: Dissociation constant, pKa of the compound by capillary electrophoresis. Format: physicochemical.
A short description of data set [2]: Plasma concentration in wild-type C57Bl/6J mouse at 30 mg/kg, po after 4 hrs. Format: ADME, organism-based. Also on record: dose 30 mg/kg, route oral.
A short description of data set [3]: Drug uptake in wild-type C57Bl/6J mouse brain at 30 mg/kg, po after 4 hrs. Format: ADME, organism-based. The arrangement: dose 30 mg/kg, route oral. Particulars: read-out: Drug uptake.
The nature of data set [4]: Ratio of drug level in brain to plasma in wild-type C57Bl/6J mouse at 30 mg/kg, po after 4 hrs. The arrangement: dose 30 mg/kg, route oral. Format: ADME, organism-based. Particulars: read-out: BPR.

Take `C[C@@]1(c2cccc(NC(=O)c3ccc(Cl)cn3)c2)COC(N)=N1`: in data set [1], the pKa – broadly, the negative logarithm of the acid dissociation constant – amounted to 8.3. The compound `CC1(c2cccc(NC(=O)c3ccccn3)c2)CSC(N)=N1` (centres undefined) returned a pKa in data set [1] of 8.3. On the same count and under the same terms, the figure for `CN1C(=O)C(C)(c2cccc(NC(=O)c3ccc(Cl)cn3)c2)N=C1N` (centres undefined) is 7.3; for `C[C@]1(c2cccc(NC(=O)c3ccc(Cl)cn3)c2)N=C(N)c2ccccc21` it is 9.7; for `NC1=NC2(CCc3ccc(NC(=O)c4ccc(Cl)cn4)cc32)CO1` (centres undefined) it is 8.3. In data set [1], `NC1=NC2(CCc3ccc(NC(=O)c4ccc(Cl)cn4)cc32)CS1` (centres undefined) returned a pKa of 8.3. For the compound `CN1CC[C@@](C)(c2cc(NC(=O)c3ccc(Cl)cn3)ccc2F)N=C1N`, the concentration at 4 h is < 3 ng/mL in data set [2] and < 13 ng/g in data set [3]. Also, the pKa in data set [1] is > 11.

Take `C[C@@]1(c2cc(NC(=O)c3ccc(Cl)cn3)ccc2F)CCC2(CC2)C(N)=N1`: the concentration at 4 h in data set [2] was 81 ng/mL; in data set [3] it was 8 ng/g. In addition, the Kp at 4 h in data set [4] stood at 0.1. For the same compound, the pKa in data set [1] was > 11.

In data set [1], `C[C@@]1(c2cc(NC(=O)c3ccc(Cl)cn3)ccc2F)CCCOC(N)=N1` had a pKa of 10.4.
